Laboratory results published in ChEMBL document CHEMBL3217666, “Synthesis, thiol-mediated reactive oxygen species generation profiles and anti-proliferative activities of 2,3-epoxy-1,4-naphthoquinones” (Medchemcomm, 2012).

How the values were obtained:
[1] = Induction of hydrogen peroxide generation at 100 uM after 30 mins by xylenol orange staining-based spectrophotometry in presence of GSH and oxygen; format: physicochemical; conditions: 0.5 h
[2] = Antiproliferative activity against human THP1 cells after 72 hrs by XTT assay; format: functional, cell-based; conditions: THP-1, 72 h
HEK293 [3] = test: Antiproliferative activity against HEK293 cells after 72 hrs by XTT assay; format: cell-based; conditions: Homo sapiens, HEK293, 72 h
[4] = Antiproliferative activity against human glioma cells; format: functional, cell-based; conditions: Glioma cell
HEK293 [5] = test: Selectivity index, ratio of IC50 for HEK293 cells to IC50 for human THP1 cells; format: functional

Row | Activity [1] | Compound | IC50 [2] | IC50 (HEK293 [3]) | IC50 [4] | Ratio IC50 (HEK293 [5])
1 | 4.4 µM | O=C1c2ccccc2C(=O)C2OC12 (stereo not given) | 6.3 µM | 18.9 µM |  | 
2 | 5.2 µM | O=C1c2cccc([N+](=O)[O-])c2C(=O)C2OC12 (stereo not given) | 3.6 µM | 12.4 µM |  | 
3 | 8.34 µM | O=C1c2ccc([N+](=O)[O-])cc2C(=O)C2OC12 (stereo not given) | 2.3 µM | 55.4 µM |  | 
4 | 1.68 µM | Nc1cccc2c1C(=O)C1OC1C2=O (stereo not given) | > 50 µM |  |  | 
5 | 5.64 µM | O=C1c2cccc(O)c2C(=O)C2OC12 (stereo not given) | 11.2 µM |  |  | 
6 | 1.68 µM | CCOc1cccc2c1C(=O)C1OC1C2=O (stereo not given) | 9.6 µM |  |  | 
7 | 1.6 µM | O=C1c2cccc(OCc3ccccc3)c2C(=O)C2OC12 (stereo not given) | 28 µM |  |  | 
8 | 1.68 µM | O=C1c2cccc(OCc3ccc(C(F)(F)F)cc3)c2C(=O)C2OC12 (stereo not given) | > 50 µM |  |  | 
9 | 1.4 µM | O=C1c2ccccc2C(=O)C2(c3cccc([N+](=O)[O-])c3)OC12 (stereo not given) | > 50 µM |  |  | 

Further lines, the compound ahead of its results:

Row | Compound | Activity [1] | IC50 [2] | IC50 (HEK293 [3]) | IC50 [4] | Ratio IC50 (HEK293 [5])
10 | CC12OC1C(=O)c1c(O)cccc1C2=O (stereo not given) | 1.6 µM | 22.8 µM |  |  | 
11 | CC12OC1C(=O)c1ccccc1C2=O (stereo not given) | 1.52 µM | 13.6 µM |  | 15.7 µM | 
12 | CC12OC1C(=O)c1c(OCc3ccccc3)cccc1C2=O (stereo not given) | 1.58 µM | > 50 µM |  |  | 
13 | O=C1c2ccccc2C(=O)C2(c3ccccc3)OC12 (stereo not given) | 1.44 µM | > 50 µM |  |  | 
14 | CC(=O)c1ccc(C23OC2C(=O)c2ccccc2C3=O)cc1 (stereo not given) | 1.36 µM | > 50 µM |  |  | 
15 | O=C1c2ccccc2C(=O)C2(c3ccc(F)cc3)OC12 (stereo not given) | 1.36 µM | 11.7 µM |  |  | 
16 | Cc1ccc(C23OC2C(=O)c2ccccc2C3=O)cc1 (stereo not given) | 1.48 µM | 20.4 µM |  |  | 
17 | COc1ccccc1C12OC1C(=O)c1ccccc1C2=O (stereo not given) | 1.28 µM | 12.4 µM |  |  | 
18 | COc1cccc(C23OC2C(=O)c2ccccc2C3=O)c1 (stereo not given) | 1.46 µM | > 50 µM |  |  | 
19 | COc1ccc(C23OC2C(=O)c2ccccc2C3=O)cc1 (stereo not given) | 1.4 µM | 11.6 µM |  |  | 
20 | COc1cccc2c1C(=O)c1c(O)c3c(c(O)c1C2=O)C[C@@](O)(C(=O)CO)C[C@@H]3O[C@H]1C[C@H](N)[C@H](O)[C@H](C)O1 [DOXORUBICIN] |  | 0.11 µM | 0.7 µM |  | 6.4
